Series [1] is described as follows: Circular dichroism of RC-101 at different pH. Conditions: 500 μg/mL in buffer, pH 7 and pH 12 versus pH 3, 0.1 cm cell. Type of series: physicochemical. As for the experimental part: (§1) Changes in the secondary structure of the protein were monitored by Circular dichroism (CD) on an AVIV Circular Dichroism spectrophotometer model 202 (AVIV Biomedical, Lakewood, NJ) equipped with a 0.1 cm path length quartz cell. RC-101 stability was also monitored by using a matrix-assisted laser desorption ionization-time of flight (MALDI-TOF) mass spectrometric (MS) on a Voyager DE-PRO mass spectrometer (Applied Biosystems, Foster City, CA). Potential for aggregation was evaluated by UV-spectroscopy using a NanoDrop ND-1000 spectrophotometer (NanoDrop Technologies Inc, Wilmington, DE).
Background: CD spectra are sensitive to the conformation of chiral molecules.

Series [2] has as its system X4 and R5 strains of HIV-1. The note with it: cited from earlier work. The text has this: Defensins are cysteine-rich, cationic antimicrobial peptides expressed by the leucocytes and epithelial cells of mammals. […] Retrocyclins (θ-Defensin) are the evolutionary descendants of α-defensin genes. Retrocyclins are circular 18-residue, tetracyclic peptides with three cysteine disulfide bonds. RC-101 ([…]), a cationic retrocyclin analog synthesized by solid phase peptide synthesis, has shown activity against X4 and R5 strains of HIV-1 in vitro [4]. The mechanism occur ...

Series [3] is described as follows: Effect of pH on stability of RC-101, HPLC. The class given is physicochemical. The note with it: 500 μg/mL, HPLC-UV.
Experimental: For all pre-formulation studies described below, triplicate solutions of RC-101 (500 μg/mL) were prepared in either water or aqueous buffer solution. Thermal degradation studies were conducted at 25, 37, and 65°C for a minimum period of 1 week. The effect of pH on the stability of RC-101 was evaluated over the pH range from 3 to 12 using 10 mM phosphate buffer solutions, at low (50 mmol/kg) and high (500 mmol/kg) ionic strength. Oxidation of RC-101 was evaluated by exposing a solution of RC-101 to hydrogen peroxide (H2O2) at concentrations of 3.0, 0.08, and 0.002% (v/v). The high H2O2 concentration (3.0%) was selected as a forced degradation concentration. […] Protection against oxidation was investigated by the addition of antioxidants commonly used in pharmaceutical products. The antioxidants used in this study were: methionine (95.2 μg/mL or 250 μg/mL), cysteine (95.2 μg/mL), glutathione (90.9 μg/mL), vitamin E TPGS (90.9 μg/mL), ascorbic acid (1.0 mg/mL), sodium ascorbate (1.0 mg/mL), and EDTA (1.0 μg/mL).
RC-101 concentration after exposure to preformulation conditions was analyzed by HPLC as previously described [11]. Briefly, the HPLC system (Waters Corporation, Milford, MA) was equipped with an autoinjector model 717, a quaternary pump model 600, and an ultraviolet (UV) detector model 2487 set up at 215 nm. Separation of RC-101 from degradant products was achieved using a Phenomenex Jupiter 5 μC5 300 Å (4.6 × 250 mm) column (Phenomenex, Torrance, CA) protected by a Widepore C5 (4 × 3.0 mm) guard cartridge (Phenomenex). The gradient consisted of mobile phase A (0.1% TFA in water (v/v)), and mobile phase B (0.07% TFA in acetonitrile (v/v)) pumped at a flow rate of 1.0 mL/min. Forced degraded samples (oxidation, temperature, and basic and acidic hydrolysis) were used to establish that the method could separate the degradants from the main peak.
HPLC data obtained from the preformulation studies were expressed as the average percentage of the peak area from time 0 ± standard deviation, n = 3. Results were analyzed by one-way analysis of variance (ANOVA) with multiple comparisons of individual time points by using post hoc Bonferroni correction to detect significant differences under different conditions. P-values ≤ 0.05 were considered to be statistically significant, unless specified otherwise.
The next series has as its system HIV-1. Conditions: RC-101 at pH 7, data not shown.
The nature of series [4]: Stability of RC-101 in 3 M urea. Type of series: physicochemical.
Experimental: At each time point, the sample was removed from the incubation chamber and centrifuged for 10 min at 10,000 rpm, at 4 ± C to separate the supernatant from cell pellet. Supernatant (100 μL) was added to microcentrifuge filters Ultracel YM-10 Microcon MWCO 10,000 (Millipore Corporation, Bedford, MA), which were pre-washed with Milli Q water to eliminate any trace of propylene glycol from the filters. Samples were centrifuged twice for 15 min at 8,500 rpm, at 4 ± C. The filtrate was collected and frozen at -80 ± C until further analysis. A solution of 3 M urea was added to the cell pellet (1:1 w/w) obtained from the first centrifugation, to lyse the cells. This mixture was vortexed three times for 30 sec, and then centrifuged for 10 min at 10,000 rpm, at 4 ± C. The supernatant obtained from the cell lysate was then added to microcentrifuge filters Ultracel YM-10 Microcon MWCO 10,000 pre-washed with Milli Q water. Samples were centrifuged twice for 15 min at 8,500 rpm, at 4 ± C. The filtrate was collected and frozen at -80 ± C until analysis. […] Samples were thawed and added to PepCleanTM C-18 spin columns (Pierce Biotechnology Inc., Rockford, IL) for desalting, after column conditioning with acetonitrile:water (50:50) and equilibration with 0.1% trifluoroacetic acid. […]
Series [5] can be described thus: UV spectroscopy for aggregation / ionic strength effect. Type of series: physicochemical. On the procedure:
as §1

A short description of series [6]: Stability in fresh normal human vaginal fluid (HVF), detection by LC-MS/MS. The note with it: for time RC-101 detected in HVF: LC-MS/MS; for detection of RC-101 by LC-MS/MS: nanoLC-SRM MS, qualitative. As for the experimental part:
Inclusion criteria included ages between 18 and 45 years and agreeing to be abstinent from sexual activity for 48 hours prior to fluid collection. […] After signing informed consent and confirming eligibility, subjects completed a questionnaire and were then instructed on the use of the Instead Softcup® (Instead Inc., La Jolla, CA). Instead Softcup® is a FDA approved device to hold menstrual fluid during the menstrual period in replacement of a tampon or pad. Subjects inserted the cup and waited for 30 min. After this time period, the physician removed the cup, and placed it into a 50 mL conical centrifuge tube. Vaginal fluid collected from healthy volunteer women was stored at 4°C until used, and it was used within 4 h after collection.
The polymeric film solution was prepared as previously described by adding Milli Q water, PVA, and hydroxypropyl methyl cellulose (HPMC). The solution was then heated at 95°C for 20 minutes for complete dissolution of the polymers. […] The plate was placed into a vacuum oven at 30 ± 2°C for 20 ± 4 h. All dried films were removed from the plates and stored at room temperature in PET/Aluminum foil pouches (Amcor Flexibles Healthcare Inc, Mundelein, IL) until further analysis. […] For analytical purposes, films were dissolved in 1 mL of Milli Q water before addition to HVF.
The HVF from the Instead Softcup® was removed by centrifugation of the conical tube for 10 min at 5,000 rpm. […] HVF was then removed from the cup and the pH of each HVF sample was measured with Fisher Alkacid pH filter strips (Fisher Scientific). All samples collected on a specific day were pooled to be used for the research studies. If the pH of the individual samples was higher than 5, the sample was not included in the pool but it was stored at -80°C for separate analysis. If the sample contained blood, it was immediately discarded. Samples were prepared as described in Table 1. […] Because of its high viscosity, HVF was measured by weight and not by volume. […] At each time point, the samples were centrifuged at 10,000 rpm for 10 min to separate the supernatant from the epithelial cells as described in the cell processing section. Both parts (supernatant and cells) were stored at -80 ± C until analyzed by LC-MS/MS. To evaluate the influence of freezing the fluid prior to the analysis, the last pool of HVF was divided into two samples: one used fresh (at the time of collection), and the other one stored at -80°C for a 3-month period. […] HVF samples collected with a high pH value indicative of BV were stored at -80°C as previously mentioned. After confirmation of BV on those fluid samples by Gram stain score, the fluid samples (HVF BV^+) were thawed, pooled, and processed as described in Table 1.
At each time point, the sample was removed from the incubation chamber and centrifuged for 10 min at 10,000 rpm, at 4 ± C to separate the supernatant from cell pellet. Supernatant (100 μL) was added to microcentrifuge filters Ultracel YM-10 Microcon MWCO 10,000 (Millipore Corporation, Bedford, MA), which were pre-washed with Milli Q water to eliminate any trace of propylene glycol from the filters. Samples were centrifuged twice for 15 min at 8,500 rpm, at 4 ± C. The filtrate was collected and frozen at -80 ± C until further analysis. A solution of 3 M urea was added to the cell pellet (1:1 w/w) obtained from the first centrifugation, to lyse the cells. This mixture was vortexed three times for 30 sec, and then centrifuged for 10 min at 10,000 rpm, at 4 ± C. The supernatant obtained from the cell lysate was then added to microcentrifuge filters Ultracel YM-10 Microcon MWCO 10,000 pre-washed with Milli Q water. Samples were centrifuged twice for 15 min at 8,500 rpm, at 4 ± C. The filtrate was collected and frozen at -80 ± C until analysis.

Data on 1 sequence can be found in paper PMC3199744, “Preformulation and stability in biological fluids of the retrocyclin RC-101, a potential anti-HIV topical microbicide” (AIDS Research and Therapy, 2011).

With “GICRCICGKGICRCICGR (bicyclic or more) [RC-101]”, in series [1], the “CD spectrum: peak shift and loss of absorbance compared to pH 3” value is “change in folding”. The “activity against X4 and R5 strains of HIV-1 in vitro” value in series [2] is recorded as “activity”. Further, the “change in RC-101 concentration over time (HPLC)” value is reported as “no statistically significant decrease” in series [3] (pH 3, 10 mM phosphate buffer, 10 days, n = 3, p > 0.83); “no statistically significant decrease” in series [3] (pH 4, 10 mM phosphate buffer, 10 days, n = 3, p > 0.83); “no statistically significant decrease” in series [3] (pH 7, 10 mM phosphate buffer, 10 days, n = 3, p > 0.83); “significant decrease” in series [3] (pH 12, 10 mM phosphate buffer, first 2 h, n = 3). Besides, the “effect of the folding change at pH 7 on bioactivity against HIV-1” value with HIV-1 is listed as “did not affect bioactivity”. In addition, in series [4], the “time stable in 3 M urea” value was “at least 24 h”. The “aggregation (increase in UV absorbance 300 to 600 nm)” value in series [5] (500 μg/mL, phosphate buffer pH 12, UV scan (data not shown)) is “presence of aggregates”. The “stability profile with high ionic strength buffers” value in series [5] (UV spectroscopy, pH 4 and 7, high ionic strength (500 mmol/kg) phosphate buffers) is reported as “did not show any significant differences”. For the same sequence, the “time RC-101 detected in HVF” value in series [6] (another (one) pool of normal HVF, 37°C) was “up to 72 h”; in series [6] (two pools of normal HVF, 37°C), 48 h. Also, the “detection of RC-101 by LC-MS/MS” value in series [6] (fresh pooled normal HVF 100 mg + 100 μL (100 μg/mL), 1:1, 37°C, 0 h) is “+”; in series [6] (fresh pooled normal HVF 1:1, 37°C, 2 h), “+”; in series [6] (fresh pooled normal HVF 1:1, 37°C, 6 h), “+”; in series [6] (fresh pooled normal HVF 1:1, 37°C, 12 h) it was “+”; in series [6] (fresh pooled normal HVF 1:1, 37°C, 24 h), “+”; in series [6] (fresh pooled normal HVF 1:1, 37°C, 48 h), “+”. Besides, in series [6] (fresh pooled normal HVF 1:1, 37°C, 72 h, only one pool analyzed), the “detection of RC-101 by LC-MS/MS” value is listed as “+”. The “time RC-101 detected after exposure to HVF” value in series [6] (normal HVF, fresh, undiluted, pooled, 1:1 with RC-101 100 μg/mL, 37°C, LC-MS/MS (SRM), not quantitative, overall of 3 pools) is on record as “at least 48 h”.
